EC50 data for 17 compounds are collected here from patent US8017782B2, “4-phenyl-5-oxo-1,4,5,6,7,8-hexahydroquinoline derivatives as medicaments for the treatment of infertility” (N.V. Organon, priority 2005, dated 2011).

The target in this assay is T1, human FSH receptor (Homo sapiens, UniProt P23945).
T1 construct: expressed in transfected cells; host or cells: Chinese Hamster Ovary (CHO) cells
T1 sequence (P23945 18-695): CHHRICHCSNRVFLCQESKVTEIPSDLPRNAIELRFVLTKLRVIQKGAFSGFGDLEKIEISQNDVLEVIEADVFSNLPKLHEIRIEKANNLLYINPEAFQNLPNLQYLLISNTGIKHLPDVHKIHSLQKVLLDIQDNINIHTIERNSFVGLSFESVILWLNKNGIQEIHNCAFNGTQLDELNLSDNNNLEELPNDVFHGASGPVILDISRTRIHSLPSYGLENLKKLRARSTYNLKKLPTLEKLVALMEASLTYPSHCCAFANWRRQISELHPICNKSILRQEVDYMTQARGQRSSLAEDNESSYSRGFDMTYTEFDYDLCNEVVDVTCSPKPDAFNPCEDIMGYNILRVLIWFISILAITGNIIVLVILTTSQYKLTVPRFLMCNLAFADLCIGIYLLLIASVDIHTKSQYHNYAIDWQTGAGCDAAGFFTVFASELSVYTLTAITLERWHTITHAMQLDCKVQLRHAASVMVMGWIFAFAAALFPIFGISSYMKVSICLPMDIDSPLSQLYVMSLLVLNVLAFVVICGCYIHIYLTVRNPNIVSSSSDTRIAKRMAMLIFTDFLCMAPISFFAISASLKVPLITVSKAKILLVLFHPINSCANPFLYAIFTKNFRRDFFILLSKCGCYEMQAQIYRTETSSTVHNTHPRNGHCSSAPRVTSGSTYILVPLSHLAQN
As to the kind of experiment: Agonistic activity at the human FSH receptor expressed in CHO cells (CRE-luciferase reporter). The conditions noted are these: CHO cells stably transfected with human FSH receptor and CRE/luciferase reporter; tested 0.1 nM to 10 μM; read-out: EC50 (concentration of test compound causing half-maximal (50%) luciferase stimulation). Format: cell-based. The method, then: Agonistic Activity of Compounds at the Human FSH Receptor Expressed in CHO Cells
Agonist activity of the compounds at the human FSH receptor was tested in Chinese Hamster Ovary (CHO) cells stably transfected with the human FSH receptor and cotransfected with a cAMP responsive element (CRE)/promotor directing the expression of a firefly luciferase reporter gene. Binding of the compound to the Gs-coupled FSH receptor will result in an increase of cAMP, which in turn will induce an increased transactivation of the luciferase reporter construct. The luciferase activity was quantified using a luminescence counter. The compounds were tested in the concentration range of 0.1 nM to 10 μM. This assay was used to determine the EC50 (concentration of test compound causing half-maximal (50%) luciferase stimulation) and efficacy of the compounds compared to recombinant human FSH. For this, the software program XLfit (Excel version 2.0, built 30, ID Business Solutions Limited) was used.
In general terms: In a reporter assay the amount or activity of a reporter protein is the signal.
Turning to `CCCC1CC(=O)C2=C(C1)NC(C)=C(C#N)C2c1cc(Br)c(OCC=CCNC(=O)C(C)C)c(OCC)c1` (centres unmarked) [Example 2, N-{4-[2-Bromo-4-(3-cyano-2-methyl-5-oxo-7-propyl-1,4,5,6,7,8-hexahydro-quinolin-4-yl)-6-ethoxy-phenoxy]-but-2-enyl}-isobutyramide], the EC50 was less than 10 nM.
Then `CCCC1CC(=O)C2=C(C1)NC(C)=C(C#N)C2c1cc(Br)c(OCC=CCNC(=O)C2CC2)c(OCC)c1` (centres unmarked) [Example 3, Cyclopropanecarboxylic acid {4-[2-bromo-4-(3-cyano-2-methyl-5-oxo-7-propyl-1,4,5,6,7,8-hexahydro-quinolin-4-yl)-6-ethoxy-phenoxy]-but-2-enyl}-amide], with less than 10 nM; and `CCCC1CC(=O)C2=C(C1)NC(C)=C(C#N)C2c1cc(Br)c(OCC=CCNC(=O)COC)c(OCC)c1` (centres unmarked) [Example 5, N-{4-[2-Bromo-4-(3-cyano-2-methyl-5-oxo-7-propyl-1,4,5,6,7,8-hexahydro-quinolin-4-yl)-6-ethoxy-phenoxy]-but-2-enyl}-2-methoxy-acetamide], with less than 10 nM.
As for `CCCC1CC(=O)C2=C(C1)NC(C)=C(C#N)C2c1cc(Br)c(OCC=CCNC(=O)OCC)c(OCC)c1` (centres unmarked) [Example 6, {4-[2-Bromo-4-(3-cyano-2-methyl-5-oxo-7-propyl-1,4,5,6,7,8-hexahydro-quinolin-4-yl)-6-ethoxy-phenoxy]-but-2-enyl}-carbamic acid ethyl ester], the figure is less than 10 nM; as for `CCCC1CC(=O)C2=C(C1)NC(C)=C(C#N)C2c1cc(Br)c(OCC=CC(=O)NCc2ccccn2)c(OCC)c1` (centres unmarked) [Example 12, 4-[2-Bromo-4-(3-cyano-2-methyl-5-oxo-7-propyl-1,4,5,6,7,8-hexahydro-quinolin-4-yl)-6-ethoxy-phenoxy]-but-2-enoic acid (pyridin-2-ylmethyl)-amide], less than 10 nM.
As for `CCCC1CC(=O)C2=C(C1)NC(C)=C(C#N)C2c1cc(Br)c(OCCCCNC(=O)C(C)C)c(OCC)c1` (centres unmarked) [Example 13, N-{4-[2-Bromo-4-(3-cyano-2-methyl-5-oxo-7-propyl-1,4,5,6,7,8-hexahydro-quinolin-4-yl)-6-ethoxy-phenoxy]-butyl}-isobutyramide], the figure is less than 10 nM; as for `CCCC1CC(=O)C2=C(C1)NC(C)=C(C#N)C2c1cc(Br)c(OCCCCCNC(=O)COC)c(OCC)c1` (centres unmarked) [Example 17, N-{5-[2-Bromo-4-(3-cyano-2-methyl-5-oxo-7-propyl-1,4,5,6,7,8-hexahydro-quinolin-4-yl)-6-ethoxy-phenoxy]-pentyl}-2-methoxy-acetamide], less than 10 nM.
On to `CCCC1CC(=O)C2=C(C1)NC(C)=C(C#N)C2c1cc(Br)c(OCCCCCCNS(=O)(=O)C(C)C)c(OCC)c1` (centres unmarked) [Example 20, Propane-2-sulfonic acid {6-[2-bromo-4-(3-cyano-2-methyl-5-oxo-7-propyl-1,4,5,6,7,8-hexahydro-quinolin-4-yl)-6-ethoxy-phenoxy]-hexyl}-amide], for which the EC50 is less than 10 nM.
Then `CCCC1CC(=O)C2=C(C1)NC(C)=C(C#N)C2c1cc(Br)c(OCCOCCNC(=O)C2CC2)c(OCC)c1` (centres unmarked) [Example 22, Cyclopropanecarboxylic acid (2-{2-[2-bromo-4-(3-cyano-2-methyl-5-oxo-7-propyl-1,4,5,6,7,8-hexahydro-quinolin-4-yl)-6-ethoxy-phenoxy]-ethoxy}-ethyl)-amide], with less than 10 nM; and `CCCC1CC(=O)C2=C(C1)NC(C)=C(C#N)C2c1cc(Br)c(OCCOCCO)c(S(=O)(=O)N(C)C)c1` (centres unmarked) [Example 23, 3-Bromo-5-(3-cyano-2-methyl-5-oxo-7-propyl-1,4,5,6,7,8-hexahydro-quinolin-4-yl)-2-[2-(2-hydroxy-ethoxy)-ethoxy]-N,N-dimethyl-benzenesulfonamide], with less than 10 nM; and `CCCC1CC(=O)C2=C(C1)NC(C)=C(C#N)C2c1cc(Br)c(OCCOCCO)c(OC(C)C)c1` (centres unmarked) [Example 24, 4-{3-Bromo-4-[2-(2-hydroxy-ethoxy)-ethoxy]-5-isopropoxy-phenyl}-2-methyl-5-oxo-7-propyl-1,4,5,6,7,8-hexahydro-quinoline-3-carbonitrile], with less than 10 nM.
As for `CCCC1CC(=O)C2=C(C1)NC(C)=C(C#N)C2c1cc(Br)c(OCCO)c(S(=O)(=O)N(C)C)c1` (centres unmarked) [Example 26, 3-Bromo-5-(3-cyano-2-methyl-5-oxo-7-propyl-1,4,5,6,7,8-hexahydro-quinolin-4-yl)-2-(2-hydroxy-ethoxy)-N,N-dimethyl-benzenesulfonamide], the figure is less than 10 nM; as for `CCCC1CC(=O)C2=C(C1)NC(C)=C(C#N)C2c1cc(Br)c(OCC=CCO)c(OCC)c1` (centres unmarked) [Example 28, 4-[3-Bromo-5-ethoxy-4-(4-hydroxy-but-2-enyloxy)-phenyl]-2-methyl-5-oxo-7-propyl-1,4,5,6,7,8-hexahydro-quinoline-3-carbonitrile], less than 10 nM; as for `CCCC1CC(=O)C2=C(C1)NC(C)=C(C#N)C2c1cc(Br)c(OCCOC)c(S(=O)(=O)N(C)C)c1` (centres unmarked) [Example 29, 3-Bromo-5-(3-cyano-2-methyl-5-oxo-7-propyl-1,4,5,6,7,8-hexahydro-quinolin-4-yl)-2-(2-methoxy-ethoxy)-N,N-dimethyl-benzenesulfonamide], less than 10 nM.
Then `CCCC1CC(=O)C2=C(C1)NC(C)=C(C#N)C2c1cc(Br)c(OCCOCCOC)c(S(=O)(=O)N(C)C)c1` (centres unmarked) [Example 30, 3-Bromo-5-(3-cyano-2-methyl-5-oxo-7-propyl-1,4,5,6,7,8-hexahydro-quinolin-4-yl)-2-[2-(2-methoxy-ethoxy)-ethoxy]-N,N-dimethyl-benzenesulfonamide], with less than 10 nM.
Consider `CCCC1CC(=O)C2=C(C1)NC(C)=C(C#N)C2c1cc(Br)c(NCCOC)c(S(=O)(=O)N2CCOCC2)c1` (centres unmarked) [Example 31, 4-[3-Bromo-4-(2-methoxy-ethylamino)-5-(morpholine-4-sulfonyl)-phenyl]-2-methyl-5-oxo-7-propyl-1,4,5,6,7,8-hexahydro-quinoline-3-carbonitrile], for which the EC50 was less than 10 nM.
Then `CCCC1CC(=O)C2=C(C1)NC(C)=C(C#N)C2c1cc(Br)c(NCCOC)c(S(=O)(=O)N2CCCC2)c1` (centres unmarked) [Example 32, 4-[3-Bromo-4-(2-methoxy-ethylamino)-5-(pyrrolidine-1-sulfonyl)-phenyl]-2-methyl-5-oxo-7-propyl-1,4,5,6,7,8-hexahydro-quinoline-3-carbonitrile], with less than 10 nM.
